# Experimental data as given in patent US20220143128A1, “METHODS FOR TREATING TRAUMATIC BRAIN INJURY” (BCell Solutions, Inc., priority 2018, published 2022).
# “Also recorded” adds a separate entry of the source.
# B1: Cystatin S: inhibitor of Cathepsin S, which cleaves CD74 in B cells, dendritic cells, and macrophages (protein, UniProt P01036 21-141, looked up)
# Cystatin-S: SSSKEENRIIPGGIYDADLNDEWVQRALHFAISEYNKATEDEYYRRPLQVLRAREQTFGGVNYFFDVEVGRTICTKSQPNLDTCAFHEQPELQKKQLCSFEIYEVPWEDRMSLVNSRCQEA
# What was measured:
# [1] = test system: cell surface CLIP on immune cells in the spleen; experiment: Dose response of CD74 cleavage inhibitors on cell surface CLIP in the spleen after FPI; type: in vivo; conditions: for cell surface CLIP on immune cells in the spleen / optimal dose to reduce CLIP after FPI: administered 30 min after FPI, spleen at 1 day post-FPI
# Protocol: FIGS. 5A-5C is a set of bar graphs showing a dose response curve of inhibitors of various specific mechanisms of cleavage of full-length CD74 into CLIP 24 hours after FPI.
# In addition to inhibiting MIF-binding to CD74, we have reduced the level of CLIP by inhibiting the distinct mechanisms by which CD74 is cleaved. Drugs that inhibit CD74 cleavage have been administered 30 min after FPI and the levels of CLIPs in the spleen have been assessed at 1 day post-FPI. […] We also found, using the proteasomal inhibitor, Bortezomib (PS341), that this compound was most efficacious at reducing cell-surface CLIP on B cells at 0.1 mg·kg, i.p. (FIG. 5B). Finally, Cystatin S is an inhibitor of Cathepsin S, which cleaves CD74 in B cells, dendritic cells, and macrophages^11,12. […] The optimal dosage is 50 mg/kg (FIG. 5C). At concentrations greater than 50 mg/kg, the compound appeared to be toxic under the tested conditions.
# [2] = test system: CLIP+ B cells in the brain; experiment: Brain flow cytometry for CLIP+ B cells after fluid percussion injury (FPI); type: in vivo, mouse
# Protocol: The contributions of full-length cell-surface CD74 and its proteolytic products (CLIPs) in the pathogenic mechanisms that follow TBI were assessed. First, we determined if full-length CD74 on B cells was altered after fluid percussion injury (FPI) in an FPI model of TBI. A mouse model of TBI was produced and splenoctyes from those mice were isolated following FPI. The model, referred to as the “fluid percussion injury model”, is referenced in Tobin et al Acta Neuropathologica Communications 2014. Splenocytes were stained with anti-CD19 for B cells and counterstained with anti-CD74.
# In order to address the innate immune components of CD74, a series of experiments in which MIF-binding to CD74 was antagonized at 30 min after FPI were performed. MIF mRNA levels are elevated after TBI. This occurs as a part of the innate immune response, via MIF-binding to, and signaling through cell surface CD74^35. We utilized ISO1, a small molecule that inhibits MIF-binding to CD74, to determine whether inhibition of MIF-binding would alter FPI-induced, CLIP-related cellular (FIG. 2) and neuroanatomical outcomes (FIGS. 3 and 4). ISO1 was administered at 30 mins after FPI and performed brain flow cytometry to assess what percent of leukocytes are CLIP+ B cells. It should be noted that less than 0.001 B cells enter the brain in naïve mice so they are not included in the graph.
# [3] = test system: FJC-labeled cells in the perilesion area; experiment: Fluorojade C (FJC) histology of neurodegeneration in peri-injury cortex after FPI; type: in vivo, mouse; conditions: 10 mg/kg at 30 mins after FPI; 3 days after FPI
# Protocol: FIG. 3A is a photomicrograph depicting FJC-staining in the peri-lesion area of a mouse treated with DMSO 30 mins after FPI. 3B is a comparative photomicrograph from a mouse treated with ISO1 at 30 mins after FPI. […] N=6 per group.
# We assessed the effects of 10 mg/kg of ISO1 administered at 30 mins after FPI on neurodegeneration (FIG. 3), and the astrocytic response (FIG. 4), in peri-injury cortex, at 3 days after FPI.
# GFAP+ astrocytes = experiment: GFAP-labeling of the astrocytic response in perilesion cortex after FPI; type: in vivo, mouse; conditions: treatment at 30 mins after FPI (ISO1 10 mg/kg), 3 days after FPI
# CLIPs in MHCII = conditions: treatment with Cystatin S; literature reference; cited from earlier work
molecule,measurement,setting,value
CC(C)C[C@H](NC(=O)[C@H](Cc1ccccc1)NC(=O)c1cnccn1)B(O)O [Bortezomib],dose most efficacious at reducing cell-surface CLIP on B cells,"[1]; i.p., 30 min after FPI, 24 hours after FPI",0.1 mg·kg
C[C@H]1CCC/C=C/[C@@H]2C[C@H](O)C[C@H]2[C@H](O)/C=C/C(=O)O1 [Brefeldin A],cell surface CLIP on immune cells in the spleen,[1],reduces cell surface CLIP on immune cells in the spleen
same,optimal dose to reduce CLIP after FPI,[1],5 mg/kg
"COC(=O)CC1CC(c2ccc(O)cc2)=NO1 (centres unmarked) [ISO1, 4,5-Dihydro-3-(4-hydroxyphenyl)-5-isoxazoleacetic acid methyl ester]",percent of CLIP+ B cells in the brain,"[2]; administered at 30 min after FPI, brain at 24 hrs after FPI",significantly reduced the percentage of CLIP+ B cells in the brain; also recorded: reduced the percent of B cells that express CLIP in the brain
same,dose providing the most significantly robust decrease in the percent of CLIP+ B cells entering the brain,[2]; at 30 mins after FPI,10 mg/kg
same,neurodegeneration (total number of FJC-labeled cells in the perilesion area),[3],no effect on neurodegeneration; also recorded: no effect on the total number of FJC-labeled cells
same,astrocytic response (GFAP-labeling) in perilesion cortex,GFAP+ astrocytes,significantly reduced the peak astrocyte response; also recorded: significantly reduced GFAP-labeling
B1,level of CLIPs in MHCII,CLIPs in MHCII,reduces the level of CLIPs in MHCII
same,concentrations at which the compound appeared to be toxic,"[1]; FPI mice, under the tested conditions",greater than 50 mg/kg
same,cell surface CLIP on immune cells in the spleen,[1],reduction in immune cell-surface CLIP; also recorded: reduced immune cell-surface CLIP
same,optimal dose to reduce CLIP after FPI,[1],50 mg/kg
